In experiment [1] the target is Mitogen-activated protein kinase 8 (Homo sapiens, UniProt P45983). In words: Selectivity interaction (Ambit KINOMEscan and KiNATiv profiling in Jurkat cells) EUB0000090b MAPK8. The format is cell-based. Conditions: at 1 µM.
The target of experiment [2] is T1, Serine/threonine-protein kinase TAO3 (Homo sapiens) (UniProt Q9H2K8).
T1 sequence (whole entry): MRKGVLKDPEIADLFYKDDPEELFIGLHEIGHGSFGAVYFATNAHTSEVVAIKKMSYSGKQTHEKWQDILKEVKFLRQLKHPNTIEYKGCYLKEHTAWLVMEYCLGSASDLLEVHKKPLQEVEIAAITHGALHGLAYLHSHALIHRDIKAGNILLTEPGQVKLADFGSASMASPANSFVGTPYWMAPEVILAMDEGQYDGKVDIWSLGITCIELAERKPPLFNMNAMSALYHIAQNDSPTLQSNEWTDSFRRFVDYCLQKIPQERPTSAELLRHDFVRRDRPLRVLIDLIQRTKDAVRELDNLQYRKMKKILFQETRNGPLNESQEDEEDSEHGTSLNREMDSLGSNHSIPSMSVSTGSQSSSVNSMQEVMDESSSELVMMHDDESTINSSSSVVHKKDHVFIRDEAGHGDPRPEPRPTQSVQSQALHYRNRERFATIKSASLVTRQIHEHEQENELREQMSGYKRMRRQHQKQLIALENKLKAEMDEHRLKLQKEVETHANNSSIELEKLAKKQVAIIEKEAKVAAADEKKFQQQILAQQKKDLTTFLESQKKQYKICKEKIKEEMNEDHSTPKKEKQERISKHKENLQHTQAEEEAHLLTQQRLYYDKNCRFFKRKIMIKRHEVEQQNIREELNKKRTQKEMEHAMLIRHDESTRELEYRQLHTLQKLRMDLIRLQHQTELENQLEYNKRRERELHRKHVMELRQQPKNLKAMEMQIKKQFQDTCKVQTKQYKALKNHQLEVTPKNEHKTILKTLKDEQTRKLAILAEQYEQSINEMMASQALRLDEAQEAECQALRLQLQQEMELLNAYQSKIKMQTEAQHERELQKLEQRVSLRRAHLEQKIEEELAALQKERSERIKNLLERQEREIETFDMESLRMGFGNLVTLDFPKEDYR
Description: Selectivity interaction (KinomeScan (DiscoverX)) EUB0000666a TAOK3. Conditions: at 10 µM.

Experiment [3] has as its target T2, Serine/threonine-protein kinase Chk1 (Homo sapiens) (UniProt O14757).
T2 sequence (whole entry): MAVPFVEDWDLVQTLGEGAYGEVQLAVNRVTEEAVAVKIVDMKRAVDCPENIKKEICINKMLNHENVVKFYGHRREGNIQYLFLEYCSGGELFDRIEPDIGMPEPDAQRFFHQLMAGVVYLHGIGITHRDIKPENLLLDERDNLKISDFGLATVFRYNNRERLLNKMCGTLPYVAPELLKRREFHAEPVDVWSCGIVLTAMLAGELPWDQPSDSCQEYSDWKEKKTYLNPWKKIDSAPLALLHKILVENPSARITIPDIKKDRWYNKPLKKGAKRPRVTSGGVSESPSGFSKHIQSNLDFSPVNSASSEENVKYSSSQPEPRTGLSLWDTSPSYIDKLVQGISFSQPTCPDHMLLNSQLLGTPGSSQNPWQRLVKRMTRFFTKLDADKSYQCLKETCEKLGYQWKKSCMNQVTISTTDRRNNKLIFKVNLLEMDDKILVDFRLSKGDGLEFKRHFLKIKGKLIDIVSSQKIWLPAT
In words: Selectivity interaction (KinomeScan (DiscoverX)) EUB0000229b CHEK1. Conditions: at 10 µM.

For experiment [4], the target named is T3, Tyrosine-protein kinase ZAP-70 (Homo sapiens) (UniProt P43403).
T3 sequence (whole entry): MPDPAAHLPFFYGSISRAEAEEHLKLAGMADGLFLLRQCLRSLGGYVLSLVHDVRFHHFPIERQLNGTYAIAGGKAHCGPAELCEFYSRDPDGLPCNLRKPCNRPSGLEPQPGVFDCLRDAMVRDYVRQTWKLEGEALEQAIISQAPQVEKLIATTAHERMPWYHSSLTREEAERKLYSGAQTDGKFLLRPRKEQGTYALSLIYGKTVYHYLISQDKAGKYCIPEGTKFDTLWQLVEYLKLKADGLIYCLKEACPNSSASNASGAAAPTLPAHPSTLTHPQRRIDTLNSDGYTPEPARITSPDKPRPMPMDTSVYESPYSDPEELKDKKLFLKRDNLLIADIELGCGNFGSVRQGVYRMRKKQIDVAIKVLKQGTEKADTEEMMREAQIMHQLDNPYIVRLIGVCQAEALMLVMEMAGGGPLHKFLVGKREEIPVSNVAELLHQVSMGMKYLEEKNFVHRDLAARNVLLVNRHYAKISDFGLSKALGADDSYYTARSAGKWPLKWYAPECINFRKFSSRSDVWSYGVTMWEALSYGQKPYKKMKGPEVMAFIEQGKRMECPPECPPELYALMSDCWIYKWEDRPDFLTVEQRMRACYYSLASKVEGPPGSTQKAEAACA
In words: Selectivity interaction (KinomeScan (DiscoverX)) EUB0000655a ZAP70. Conditions: at 10 µM.

For experiment [5], the target named is Ribosomal protein S6 kinase alpha-4 (Homo sapiens) (UniProt O75676). Conditions: at 10 µM.
For experiment [6], the target named is Serine/threonine-protein kinase 32B (Homo sapiens) (UniProt Q9NY57). In words: Selectivity interaction (KinomeScan (DiscoverX)) EUB0001049a STK32B. Conditions: at 1 µM.
The target of experiment [7] is T4, Serine/threonine-protein kinase RIO3 (Homo sapiens) (UniProt O14730).
T4 sequence (whole entry): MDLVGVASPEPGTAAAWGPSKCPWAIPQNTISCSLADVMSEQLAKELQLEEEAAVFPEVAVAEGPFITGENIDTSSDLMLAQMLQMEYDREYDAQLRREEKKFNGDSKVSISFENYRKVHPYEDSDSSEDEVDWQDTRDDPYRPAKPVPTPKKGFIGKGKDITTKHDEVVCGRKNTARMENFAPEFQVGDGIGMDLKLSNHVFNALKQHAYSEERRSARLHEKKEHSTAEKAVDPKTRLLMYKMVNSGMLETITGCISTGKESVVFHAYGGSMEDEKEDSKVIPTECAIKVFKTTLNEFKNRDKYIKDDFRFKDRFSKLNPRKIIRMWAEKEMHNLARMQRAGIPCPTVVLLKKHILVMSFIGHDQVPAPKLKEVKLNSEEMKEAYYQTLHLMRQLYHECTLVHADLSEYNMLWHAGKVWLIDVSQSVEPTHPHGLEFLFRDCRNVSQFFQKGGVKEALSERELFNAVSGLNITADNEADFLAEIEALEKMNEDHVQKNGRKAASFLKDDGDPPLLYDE
In words: Selectivity interaction (KinomeScan (DiscoverX)) EUB0000695a RIOK3. Conditions: at 100 nM.

Sequence of Mitogen-activated protein kinase 8 (P45983 whole entry): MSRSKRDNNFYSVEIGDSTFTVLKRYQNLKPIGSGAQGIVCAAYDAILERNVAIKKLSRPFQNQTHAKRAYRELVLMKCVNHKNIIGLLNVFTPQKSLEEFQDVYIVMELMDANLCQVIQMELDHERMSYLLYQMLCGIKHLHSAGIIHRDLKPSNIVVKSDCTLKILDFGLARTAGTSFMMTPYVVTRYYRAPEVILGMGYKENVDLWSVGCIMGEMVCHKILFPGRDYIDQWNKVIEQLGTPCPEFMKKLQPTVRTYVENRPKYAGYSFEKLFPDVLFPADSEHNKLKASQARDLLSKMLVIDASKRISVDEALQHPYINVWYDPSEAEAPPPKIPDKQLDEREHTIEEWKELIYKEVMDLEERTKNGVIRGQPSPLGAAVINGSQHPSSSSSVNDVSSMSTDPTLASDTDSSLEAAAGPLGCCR
Sequence of Ribosomal protein S6 kinase alpha-4 (Homo sapiens) (O75676 whole entry, looked up): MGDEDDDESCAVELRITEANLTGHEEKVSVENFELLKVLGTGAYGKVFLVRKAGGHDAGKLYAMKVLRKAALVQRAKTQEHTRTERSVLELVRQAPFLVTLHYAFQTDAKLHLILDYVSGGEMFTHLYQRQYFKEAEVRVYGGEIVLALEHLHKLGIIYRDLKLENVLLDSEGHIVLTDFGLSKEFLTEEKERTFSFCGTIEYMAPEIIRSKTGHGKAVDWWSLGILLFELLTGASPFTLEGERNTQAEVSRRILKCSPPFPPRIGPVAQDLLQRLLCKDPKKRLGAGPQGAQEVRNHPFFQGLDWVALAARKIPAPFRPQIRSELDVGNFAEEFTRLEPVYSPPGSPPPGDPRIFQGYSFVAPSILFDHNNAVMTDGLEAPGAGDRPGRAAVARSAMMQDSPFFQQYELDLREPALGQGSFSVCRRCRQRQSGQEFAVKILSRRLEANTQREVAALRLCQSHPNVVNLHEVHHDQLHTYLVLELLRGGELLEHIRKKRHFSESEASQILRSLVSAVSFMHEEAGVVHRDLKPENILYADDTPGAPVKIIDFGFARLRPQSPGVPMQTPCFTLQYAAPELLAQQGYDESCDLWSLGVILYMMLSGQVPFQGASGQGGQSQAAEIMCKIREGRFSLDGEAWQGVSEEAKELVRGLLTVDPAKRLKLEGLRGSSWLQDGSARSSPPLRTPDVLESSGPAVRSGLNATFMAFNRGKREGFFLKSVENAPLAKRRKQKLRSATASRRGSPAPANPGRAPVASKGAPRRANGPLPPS
Sequence of Serine/threonine-protein kinase 32B (Homo sapiens) (Q9NY57 whole entry): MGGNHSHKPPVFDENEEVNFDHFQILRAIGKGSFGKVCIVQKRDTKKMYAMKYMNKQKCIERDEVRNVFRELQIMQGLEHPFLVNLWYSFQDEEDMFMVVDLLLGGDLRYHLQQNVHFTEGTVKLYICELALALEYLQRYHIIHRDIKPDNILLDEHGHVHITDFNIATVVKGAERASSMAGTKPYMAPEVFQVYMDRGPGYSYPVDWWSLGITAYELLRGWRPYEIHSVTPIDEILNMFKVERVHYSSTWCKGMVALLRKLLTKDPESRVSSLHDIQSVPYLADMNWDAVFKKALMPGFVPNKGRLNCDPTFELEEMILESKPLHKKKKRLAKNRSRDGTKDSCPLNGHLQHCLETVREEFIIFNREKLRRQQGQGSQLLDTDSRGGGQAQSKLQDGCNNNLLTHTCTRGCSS

`CN(C)C/C=C/C(=O)Nc1ccc(C(=O)N2CCCC(Nc3ncc(Cl)c(-c4c[nH]c5ccccc45)n3)C2)cc1` (configuration not stated): the % of control in experiment [1] came out at 0.95%.
In experiment [2], `O=C(NOC[C@H](O)CO)c1ccc(F)c(F)c1Nc1ccc(I)cc1F` gave a % of control of 89%.
Regarding `COc1cc(N(C)c2ccnc3ccc(C(F)(F)F)cc23)cc(OC)c1OC`, the % binding in experiment [3] was found to be 92%.
For `CN(C)CCOc1ccc(-c2nc(-c3ccncc3)c(-c3ccc4c(c3)CC/C4=N\O)[nH]2)cc1`, the % of control in experiment [4] is 100%.
As to `CCN(CC)CCCCNc1ncc2cc(-c3cc(OC)cc(OC)c3)c(NC(=O)NC(C)(C)C)nc2n1`, the % of control in experiment [5] was 100%.
Consider `COc1cc(Nc2nc(C)cc(-c3cnn4nc(OC)ccc34)n2)cc(C(F)(F)F)c1`, for which the % of control in experiment [6] worked out at 100%.
As to `Cc1cc(F)c(C(=O)Nc2cccc(-c3nncn3C(C)C)n2)cc1-n1cnc(C2CC2)c1`, in experiment [7], the % of control is 83%.

The record behind these values is ChEMBL document CHEMBL5465560, “Selectivity Literature for EUbOPEN Chemogenomic Library” (2024).
